Like-named read-outs stand apart in the source and are kept apart here. Values belong to the molecule of their own block, whether it stands above or below them.
How the values were obtained:
[1] = test system: human proximal tubular cells (HK2); assay: ATP generation by Seahorse analysis in HK2 cells exposed to adenine; assay type: cell-based
kidney cells [2] = assay: Adenine toxicity to kidney cells (FIG. 13); assay type: cell-based
kidney tubular cells = assay: Adenine stimulation of extracellular matrix molecules in kidney tubular cells; assay type: cell-based
mTOR pathway = assay: Adenine-induced stimulation of mTOR pathway (P-S6K) in tubular cells (FIG. 28); assay type: cell-based; conditions: adenine challenge
Source text: The downstream pathways stimulated by adenine are PI3Kinase, AKT and mTOR (FIG. 28). […] Once mTOR is inhibited the downstream effect of adenine to stimulate matrix accumulation was reduced (FIG. 19).

mice = assay: Adenine administration to mice (FIG. 30, 31); assay type: in vivo, mouse
Source text: FIG. 30. Adenine administration to mice increases serum sTNFR1 (A), plasma KIM-1 (B). (n=12 in control group and n=7 in adenine treated group, *p<0.05, **p<0.01, ***p<0.001, […] vs control by t-test or One-way ANOVA).
FIG. 31. Adenine administration to mice increases kidney (A) and heart (B) hypertrophy and mTOR mediated matrix molecules in the kidney (C). Quantitative assessment of phosphor-S6 kinase as a measure of mTOR (D), fibronectin/-b-actin (E) and collagen type 1 alpha 2 chain (F). (n=12 in control group and n=7 in adenine treated group, *p<0.05, **p<0.01, ***p<0.001, […] vs control by t-test or One-way ANOVA).
Patients with type 1 diabetes (n=8) or type 2 diabetes (n=8) have an increase in tissue levels of adenine in their kidney biopsies as compared to healthy controls (n=5)(FIG. 29). Adenine administration is causative of the major manifestations of diabetic kidney disease in a mouse model, including serum soluble tumor necrosis factor receptor-1 (sTNFR1) and plasma kidney injury […] (KIM1) (FIG. 30). Adenine also stimulates kidney hypertrophy and heart hypertrophy (FIG. 31) as well as kidney phosphor-S6-kinase (marker of mTOR activity), kidney fibronectin and kidney collagen type 1 alpha-2 chain (FIG. 31). An inhibitor of MTAP (DADMe-ImmA 10 mg/kg/d in drinking water for 8 weeks) reduces urine ACR, urine hydrogen peroxide (urine H2O2) and urine collagen in a mouse model of diabetic kidney disease (db/db mouse) (FIG. 32).

[3] = test system: mice challenged with adenine; assay: In vivo IRsiRNA #1 with adenine challenge in drinking water in mice (FIG. 35); design: species or system mouse
Experimental: (§1) FIG. 35. In vivo administration of IRsiRNA #1 reduced IR specifically in mouse kidney and prevented adenine-induced rise in BUN levels in mice. Mice were administered vehicle or kidney targeting IRsiRNA #1 prior to being challenged with adenine (5 mM) in the drinking water for 4 days.
as §1, with “In FIG.” for “FIG.”, “35, in” for “35. In”, “Blood Urea Nitrogen (BUN)” for “BUN”

[4] = test system: patients with hyperfiltration; assay: Urine adenine in type 1 diabetic patients with hyperfiltration treated with empagliflozin (FIG. 23); assay type: in vivo, human; conditions: high risk patients with hyperfiltration, after 8 weeks of treatment
Source text: FIG. 23. Empagliflozin reduces urine adenine levels in patients with hyperfiltration. Hyperfilterers (red lines and dots) and normofilterers (blue lines and dots). Overall effect of treatment (Visit 3 and 4 vs. Visit 12 and 13) on least square mean changes to log-transformed adenine levels is reported. Significant p-values stated. *p<0.05, **p<0.01.

kidney cells [5] = assay: Protection of kidney cells from cell death by MTAP inhibitor (FIG. 18); assay type: cell-based; conditions: cell stress due to reduction of MDM2
[6] = test system: mice undergoing ischemia-reperfusion injury; assay: Ischemia-reperfusion injury in mice, BUN (FIG. 25); assay type: in vivo, mouse; conditions: inhibitor given once before ischemia 30 min and reperfusion, BUN 24 h later
Experimental: FIG. 25. MTAP inhibitor DADMe-ImmA given once before ischemia-reperfusion injury prevents an increase in BUN levels in mice undergoing ischemia-reperfusion injury. Mice underwent ischemia for 30m followed by reperfusion and 24 h later, the BUN was measured.

db/db mice [7] = assay: MTAP inhibitor for 8 weeks in db/db mice (FIG. 32, 33); assay type: in vivo, mouse
Experimental: FIG. 32. […] Control (db/m) and diabetic (db/db) mice were treated from week 12 to week 20 with MTAP inhibitor (10 mg/kg/day in drinking water) and 24 h urine samples were collected and measured for albumin/creatinine ratio (A), hydrogen peroxide/creatinine ratio (B) and collagen/creatinine ratio (C). (*p<0.05, ANOVA, n=5-6/group)
FIG. 33. […] Control (db/m) and diabetic (db/db) mice were treated from week 12 to week 20 with MTAP inhibitor (10 mg/kg/day in drinking water) and kidney weight was standardized per tibia length (A). Kidney cortex was immunoblotted for fibronectin and laminin y1 and standardized for b-actin with quantitative data shown in (B) and (C), respectively. (*p<0.05, ANOVA, n=5-6/group)

[8] = test system: Kidney tubules (MCT) cells; assay: Adenine-induced fibronectin accumulation in MCT cells (FIG. 19); assay type: cell-based, mouse
Experimental: FIG. 19. Effect of Rapamycin and NaHS on Adenine. […] A. Kidney tubules (MCT) cells were pre-incubated with 10 nM of rapamycin for 30 min followed by incubation with 20 μM of adenine for 15 min. B. MCT cells were incubated with 20 μM of adenine and 250 μM NaHS for 15 min.

db/db mice [9] = test system: db/db mice
Experimental: FIG. 26. […] NaHS administered for 4 weeks to db/db mice and db/m mice and MTAP/-b-actin and fibronectin/b-actin levels were evaluated by immunoblotting. Urine ACR was measured at end of 4-week period of NaHS administration.

[10] = test system: human insulin receptor mRNA; assay: Insulin receptor mRNA knockdown in HK2 cells by qRTPCR (FIG. 36); assay type: cell-based; conditions: 96 h after transfection, vs control siRNA
Experimental: FIG. 36. siRNA to Human and Pig Insulin receptor is effective to reduce mRNA for Insulin receptor in human kidney cells. Human kidney (HK2) proximal tubular cells were transfected with siRNA (4 ul from 10 um stock) using RNAiMax (6 ul in optiMEM) and plated on 6 well plates. After 48 h, the media was replaced with fresh media. After 96 h of the transfection, total RNA was isolated and subjected to cDNA synthesis followed by qRTPCR.
In this non-limiting example, siRNA targeting human/pig insulin receptor mRNA can reduce human insulin receptor in human tubular cells. (FIG. 36). In FIG. 36, siRNA to human and pig insulin receptor is effective to reduce mRNA for insulin receptor in human kidney cells. Human kidney (HK2) proximal tubular cells were transfected with siRNA (4 ul from 10 um stock) using RNAiMax (6 ul in optiMEM) and plated on 6 well plates. After 48 h, the media was replaced with fresh media. After 96 h of the transfection, total RNA was isolated and subjected to cDNA synthesis followed by qRTPCR.

[11] = test system: mouse insulin receptor mRNA; assay: Insulin receptor mRNA knockdown in MCT cells by qRTPCR (FIG. 34); assay type: cell-based; conditions: reverse transfection, 72 h
Experimental: (§2) FIG. 34. siRNAs to insulin receptor (IR) based on sequence in mouse and rat reduces IR in mouse kidney cells. Mouse cortical tubular (MCT) cells were reverse transfected with siRNAs targeting mouse and rat insulin receptor mRNA (m/r IRsiRNA #1 and m/r IR siRNA #5) using RNAiMax (6 ul in optiMEM) and plated on 6 well plates. After 72 h of incubation, total RNA was isolated and subjected to cDNA synthesis followed by qRTPCR (n=6/group, ****p<0.0001).
as §2, with “34 illustrates the administration of the siRNA for the insulin receptor to mice treated with adenine reduced insulin receptor in the kidney but not in liver and prevented the increase in blood urea nitrogen levels (FIG. 35). In FIG. 34,” for “34.”

[12] = adenine administration vs control
[13] = 10 mg/kg/day in drinking water, week 12 to 20, 24 h urine
[14] = 10 mg/kg/day, 8 weeks, kidney cortex immunoblot

ATP generation ([1]; dose dependence): dose-dependently reduced ATP generation | ATP generation ([1]; high doses of adenine): complete reduction of ATP generation | kidney collagen type 1 alpha-2 chain (mice; adenine administration): stimulates | kidney fibronectin (mice; adenine administration): stimulates | kidney phosphor-S6-kinase (marker of mTOR activity) (mice; adenine administration): stimulates | plasma KIM-1 (mice; [12]): increases | serum sTNFR1 (mice; [12]): increases | elevation in BUN levels vs non-adenine group ([3]; vehicle and adenine 5 mM in drinking water for 4 days): 3 fold
Molecule: Nc1ncnc2nc[nH]c12 [Adenine]
toxicity to kidney cells (kidney cells [2]): toxic to kidney cells | Type I collagen (kidney tubular cells): rapidly stimulates Type I collagen | fibronectin production (kidney tubular cells): stimulates | S6K phosphorylation (P-S6K) (mTOR pathway): increased within minutes of adenine challenge | heart hypertrophy (mice; adenine administration): stimulates | kidney hypertrophy (mice; adenine administration): stimulates

Molecule: OC[C@H]1O[C@@H](c2ccc(Cl)c(Cc3ccc(O[C@H]4CCOC4)cc3)c2)[C@H](O)[C@@H](O)[C@@H]1O [Empagliflozin]
urine adenine/creatinine levels [4]: reduces urine adenine/creatinine levels

Molecule: CSC[C@H]1CN(Cc2c[nH]c3c(N)ncnc23)C[C@@H]1O [MT-DADMe-ImmA, Methylthio-DADMe-Immucillin]
protection of kidney cells from cell death (kidney cells [5]): protects kidney cells from cell death | BUN [6]: no significant increase in BUN | urine ACR (db/db mice [7]; [13]): reduces | urine H2O2 (db/db mice [7]; [13]): reduces | urine collagen (db/db mice [7]; [13]): reduces | kidney fibronectin (db/db mice [7]; [14]): reduced | kidney laminin yI (db/db mice [7]; [14]): reduced | kidney hypertrophy (db/db mice [7]; 10 mg/kg/day, 8 weeks, kidney weight per tibia length): reduced

Molecule: [Na+].[SH-] [NaHS, sodium hydrogen sulfide]
adenine-induced fibronectin production ([8]; MCT cells, 20 μM adenine and 250 μM NaHS for 15 min): inhibit adenine-induced fibronectin production | adenine-induced disease causing pathways (mTOR) ([8]; kidney cells, NaHS): protects against | healing pathways (AMPK) ([8]; kidney cells, NaHS): improving healing pathways (AMPK) | MTAP/b-actin by immunoblotting (db/db mice [9]; NaHS 4 weeks, kidney): significant reduction | fibronectin/b-actin by immunoblotting (db/db mice [9]; NaHS 4 weeks, kidney): significant reduction | urine ACR (db/db mice [9]; end of 4-week NaHS administration): significant reduction

Molecule: H/P IR siRNA #4: siRNA targeting human and pig IR mRNA, SEQ ID NO. 21 (+) and SEQ ID NO. 22 (−) (sense GGAAUGACCAGAGACAUCUAUGAAA; antisense UUUCAUAGAUGUCUCUGGUCAUUCCAA; listed as RNA, chemistry not fully specified)
human insulin receptor mRNA [10]: significant reduction

Molecule: H/P siRNA #2: siRNA targeting human and pig IR mRNA, SEQ ID NO. 17 (+) and SEQ ID NO. 18 (−) (sense CAGUACGUCAUUCACAACAACAAGU; antisense ACUUGUUGUUGUGAAUGACGUACUGGU; listed as RNA, chemistry not fully specified)
human insulin receptor mRNA [10]: significant reduction

Molecule: m/r IR siRNA #5: siRNA targeting mouse/rat IR mRNA, SEQ ID NO. 9 (+) and SEQ ID NO. 10 (−) (sense AAAUCAGUUCCUCAAAUUGACCAAU; antisense AUUGGUCAAUUUGAGGAACUGAUUUUG; listed as RNA, chemistry not fully specified)
mouse insulin receptor at mRNA level [11]: significant reduction

Molecule: m/r IRsiRNA #1: siRNA targeting mouse/rat IR mRNA, SEQ ID NO. 1 (+) and SEQ ID NO. 2 (−) (sense GGCUCUGUCCGCAUCGAGAAGAAUA; antisense UAUUCUUCUCGAUGCGGACAGAGCCCC; listed as RNA, chemistry not fully specified)
mouse insulin receptor at mRNA level [11]: significant reduction | IR in mouse kidney cortex ([3]; day 4, immunoblot vs control sample): reduction of IR in mouse kidney cortex | BUN levels ([3]; siRNA before adenine 5 mM in drinking water for 4 days): no increase in BUN levels

From patent US20250369050A1, “METHODS AND COMPOSITIONS RELATED TO ASSESSMENT AND TREATMENT OF KIDNEY DISEASE” (Board of Regents, The University of Texas System, priority 2022, published 2025)
